System: inositol levels in Dictyostelium cells
Assay: Inositol levels in treated Dictyostelium cells
Assay type: cell-based, Dictyostelium discoideum
Conditions: time period causing phosphoinositide attenuation (9 min)
Experimental: Following a 6 min incubation, labelling solution was removed and cells were lysed in acidified methanol and phospholipids were separated as previously detailed (Williams et al., 1999). Phospholipid labelling was quantified using a Typhoon phosphor-imager. Even loading was determined using total lipid stain with copper sulphate. Inositol levels were measured from five hour developed cells (similar to phospholipid labelling), following lyophilisation, as previously described (Maslanski & Busa, 1990).

Compound | reduction in inositol levels
CCCCCCCCC(=O)O [nonanoic acid] | do not acutely deplete inositol

System: not given
Assay: not given
Conditions: Table 2; cited from earlier work

Compound | pKa
CCCCCCCCCCCC(=O)O [dodecanoic acid] | 4.85
CCCCCCCCCCCCCCCCC(=O)O [heptadecanoic acid] | 4.78
CCCCCCC(=O)O [heptanoic acid] | 4.89
CCCCCCCCC(=O)O [nonanoic acid] | 4.95
CCCCCCCC(=O)O [octanoic acid] | 4.89
CCCCC(=O)O [pentanoic acid] | 4.84

System: PTZ-induced epileptiform activity in entorhinal cortex-hippocampal slices
Assay: In vitro PTZ acute seizure model, entorhinal cortex-hippocampus slices
Assay type: cell-based, rat
Conditions: PTZ 2 mM, [K+] 6 mM; compounds equimolar 1 mM; 30 to 40 minutes after application
Experimental: The rats (p21) were decapitated after killing by intraperitoneal injection with an overdose of pentobarbitone (500 mg/kg). The brain was removed and placed in ice-cold sucrose solution in mM: NaCl 87, KCl 2.5, MgCl2 7, CaCl2 0.5, NaH2PO4 1.25, sucrose 75, glucose 25, equilibrated with 95% 02/5% CO2 (pH 7.4). Horizontal combined entorhinal cortex-hippocampus slices (350 μm) were prepared with a Leica vibratome (Leica V T1200S) and were then stored in an interface chamber that contained artificial cerebrospinal fluid solution (aCSF) containing in mM: NaCl 119, KCl 2.5, MgSO4 4, CaCl2 4, NaHCO326.2, NaH2PO4 1, glucose 11, and gassed with 95% O2/5% CO2. They were stored for over one hour before being transferred to a submersion recording chamber continually perfused with carbogenated aCSF for recording. Field potential recordings were made by placing glass microelectrodes (˜1-2 MΩ) filled with aCSF solution in stratum radiatum of CA1. Bipolar stimulating electrodes were positioned in the Schaffer collateral/commissural fibre pathway in stratum radiatum to confirm slice viability. In the PTZ acute seizure model, PTZ (2 mM) was added to the perfusate and [K+] was increased to 6 mM in order to induce epileptiform activity (Armand et al., 1998). In the low Mg^2+ acute seizure model, Mg^2+ free aCSF was applied to generate rhythmic short recurrent discharges. Novel anticonvulsants were applied once the frequency and amplitude of the epileptiform discharges were stable over a period of 10 min. Anticonvulsant effects were evaluated by measuring the variation of frequency of the discharges every minute. The data acquired from the 30 to 40 minutes after application novel anticonvulsants were compared by ANOVA followed by post-hoc testing using Tukey test, using SPSS statistical analysis.

Compound | frequency of epileptiform discharges (seizure discharge frequency)
CCCCCCC(CCCC)C(=O)O (stereo not drawn) [2-butyloctanoic acid] | 5.2±5.0%
CCCCCCC(CCC)C(=O)O (stereo not drawn) [2-propyloctanoic acid] | 5.3±3.3%
CCCCCCCCCC(=O)O [decanoic acid] | 0.23±0.23%
CCCCCCCCC(=O)O [nonanoic acid] | 20.9±7.5%
CCCCC(=O)O [pentanoic acid] | not seen

System: phosphoinositide (PIP and PIP2) turnover in Dictyostelium AX2 cells
Assay: Dictyostelium phospholipid labelling (PIP and PIP2 turnover)
Assay type: cell-based, Dictyostelium discoideum
Conditions: Dictyostelium, 0.1 h, read-out: PIP Level (% control), Table 1; 0.5 mM compound, 3 min pre-treatment + 6 min labelling; wild type Dictyostelium
Experimental: Phospholipid labelling was quantified using a Typhoon phosphor-imager. Even loading was determined using total lipid stain with copper sulphate.

Compound | activity at 500 µM [%]
C=CCC(C)(C)C(=O)O [2,2-dimethyl-4-pentenoic acid] | 60
CCCCCCC(CO)CCCC (stereo not drawn) [2-butyl-1-octanol] | 93
CCCCC(CC)C(=O)O (stereo not drawn) [2-ethylhexanoic acid] | 22.2
CCCCCCCCC(CO)CCCCCC (stereo not drawn) [2-hexyl-1-decanol] | 191
CCCCC(C)C(=O)O (stereo not drawn) [2-methylhexanoic acid] | 68.1
CCCC(C)C(=O)O (stereo not drawn) [2-methylpentanoic acid] | 59
CCCC(CO)CCC [2-propyl-1-pentanol] | 101
CC(CC(=O)O)CC(C)(C)C (stereo not drawn) [3,5,5-trimethylhexanoic acid] | 32
C=CC(C)CC(=O)O (stereo not drawn) [3-methyl-4-pentenoic acid] | 84
CCC(C)CC(=O)O (stereo not drawn) [3-methylpentanoic acid] | 64
CCCCCCCCC(C)CC(=O)O (stereo not drawn) [3-methylundecanoic acid] | 50
CCCCC(CC)CCC(=O)O (stereo not drawn) [4-ethyloctanoic acid] | 13.2
CCC(C)CCC(=O)O (stereo not drawn) [4-methylhexanoic acid] | 68
CCCCCC(C)CCC(=O)O (stereo not drawn) [4-methylnonanoic acid] | 45
CC(C)CCCC(=O)O [5-methylhexanoic acid] | 7.2
CC(C)C(C(=O)O)C(C)C [DIA, diisopropylacetic acid] | 18.6
O=C(O)C(c1ccccc1)c1ccccc1 [Diphenylacetic acid, 2,2-diphenylacetic acid] | 39
NCCCC(=O)O [GABA, 4-aminobutanoic acid, reference compound] | 60.8

Compound | activity at 500 µM [%]
CCCC(C(=O)O)C(C)C (stereo not drawn) [PIA, propylisopropylacetic acid] | 15.4
CCCC(C(N)=O)C(C)C (stereo not drawn) [PID, propylisopropylacetamide] | 59
CC(C)(C)CC(=O)O [TBA, tert-butylacetic acid] | 21.4
CCCCCCCCCC(=O)O [decanoic acid] | 12.9
CCCCCCCCCCCC(=O)O [dodecanoic acid] | 42
CCCCCCCCCCCCCCCCC(=O)O [heptadecanoic acid] | 92.3
CCCCCCC(=O)O [heptanoic acid] | 31.2
CCCCCC(=O)O [hexanoic acid] | 49.2
CCCCC(=O)OC [methylvalerate] | 46
CCCOC(=O)C(C)CCC (stereo not drawn) [n-propyl 2-methylvalerate] | 121
CCCCCCCCC=O [nonanal] | 99
CCCCCCCCC(=O)O [nonanoic acid] | 8
CCCCCCCC=O [octanal] | 260
CCCCCCCC(=O)O [octanoic acid] | 16.7
CCCCC=O [pentanal] | 52
CCCCC(=O)O [pentanoic acid] | 66.9
CC/C=C/C(=O)O [trans-pent-2-enoic acid] | 50.4

Same assay, conditions: Dictyostelium, 0.1 h, read-out: PIP level % control, Table 2; VPA and straight chain acids in Dictyostelium

Compound | activity at 500 µM [%]
CCCCCCCCCC(=O)O [decanoic acid] | 12.9
CCCCCCCCCCCC(=O)O [dodecanoic acid] | 42
CCCCCCCCCCCCCCCCC(=O)O [heptadecanoic acid] | 92.3
CCCCCCC(=O)O [heptanoic acid] | 31.2
CCCCCC(=O)O [hexanoic acid] | 49.2
CCCCCCCCC(=O)O [nonanoic acid] | 8
CCCCCCCC(=O)O [octanoic acid] | 16.7
CCCCC(=O)O [pentanoic acid] | 66.9

Same assay, conditions: Table 1; 0.5 mM compound, 3 min pre-treatment + 6 min labelling; wild type Dictyostelium

Compound | PIP Level (% control)
4-hexenoic acid, (cis + trans) | 58
CCCCC(C)(C)C(=O)O [2,2-dimethylhexanoic] | 29.7
CCCCCC(C)C(=O)O (stereo not drawn) [2-methylheptanoic] | 16.1
CNC(=O)C1C(C)(C)C1(C)C [MTMCD, N-methyl-tetramethyl-cyclopropane carboxamide] | 50.8
CC1(C)C(C(=O)O)C1(C)C [TMCA, tetramethylcyclopropane carboxylic acid] | 33.9
CC1(C)C(C(N)=O)C1(C)C [TMCD, tetramethylcyclopropane-carboxamide] | 72.5
CCC(C)C(CC)C(N)=O (stereo not drawn) [valnocatmide, 2-ethyl-3-methyl valeramide, reference compound] | 64
Tert-butyl amide | 47.6

Same assay, conditions: Table 1; wild type Dictyostelium

Compound | reduction of PIP2 signalling [%] | reduction of PIP signalling [%]
CCCCCCCCC(=O)O [nonanoic acid] | 93 | 92

System: uptake of 3H arachidonic acid / palmitic acid into Dictyostelium cells
Assay: Fatty acid uptake (3H radiolabel incorporation into cells)
Assay type: cell-based, Dictyostelium discoideum
Conditions: 3H-AA; FIG. 9

Compound | effect on 3H-AA uptake compared with VPA
CCCC(C(=O)O)C(C)C (stereo not drawn) [PIA, propylisopropylacetic acid] | elevated uptake

Same assay, conditions: latrunculin 10 μM

Compound | effect on VPA-induced AA uptake | fatty acid uptake in control cells
latrunculin | failed to attenuate | decreased uptake

System: release of 3H arachidonic acid / palmitic acid radiolabel from Dictyostelium cells
Assay: Fatty acid release (3H radiolabel release from labelled cells)
Assay type: cell-based, Dictyostelium discoideum
Conditions: 3H-AA; FIG. 9

Compound | inhibitory effect on radiolabel release
CCCC(C(=O)O)C(C)C (stereo not drawn) [PIA, propylisopropylacetic acid] | strong

Same assay, conditions: BEL 80 μM; MAFP 50 μM; BPB 20 μM; cocktail of all three

Compound | effect of PLA2 inhibitors on radiolabel release from 3H-AA cells
O=C1O/C(=C/Br)CCC1c1cccc2ccccc12 (stereo not drawn) [BEL, reference compound] | reduced radiolabel release
O=C(CBr)c1ccc(Br)cc1 [BPB, reference compound] | reduced radiolabel release

Same assay, conditions: Dictyostelium, 0.5 h; Table 3; 3H-AA labelled cells; 30 min, 0.5 mM treatment; read-out: AA release [% of control]

Compound | activity at 500 µM [%]
CCCCCCCCC(CC)C(=O)O (stereo not drawn) [2-ethyl-decanoic] | 73
CCCCCCCCC(CCC)C(=O)O (stereo not drawn) [2-propyl-decanoic acid] | 56
CCCCCCC(CCC)C(=O)O (stereo not drawn) [2-propyloctanoic acid] | 45
CCCCC(CC)CCC(=O)O (stereo not drawn) [4-ethyloctanoic acid] | 87
CCCCCC(C)CCC(=O)O (stereo not drawn) [4-methylnonanoic acid] | 63
CCCCCCCCCC(=O)O [decanoic acid] | 62
CCCCCCCCCCCC(=O)O [dodecanoic acid] | 89
CCCCCCCCC(=O)O [nonanoic acid] | 66
CCCCCCCC(=O)O [octanoic acid] | 72

Same assay, conditions: Table 3; 30 min, 0.5 mM

Compound | radiolabel release activity relative to control
CCCCCCC(CCC)C(=O)O (stereo not drawn) [2-propyloctanoic acid] | ≤ 45 % of control

Reference: patent publication US11491127B2, “Therapeutic use of compounds” (UCL BUSINESS LTD, priority 2010, dated 2022)
